Organism: Rattus norvegicus
Experiment: Open TG-GATES - Regimen: Daily Repeat
Type: toxicity, organism-based, Sprague-Dawley
Design: regimen Daily Repeat, gender Male, age 6 weeks
Conditions: in vivo, po, 30 mg/kg, route gavage, dose level Low; for APTT / Bas / Eos / Fbg / Hb / Ht / Lym / MCH / MCHC / MCV / Mono / Neu / PT / Plat / RBC / Ret / WBC: tissue Blood; for ALP / ALT / AST / BUN / CRE / DBIL / GLC / IP / K / Na / PL / RALB / TBIL / TC / TG / TP / gamma-GTP: tissue Plasma

## NS(=O)(=O)c1cc(C(=O)O)c(NCc2ccco2)cc1Cl [FUROSEMIDE]
72 h, time 3 day
  TERMINAL_BW: 242 g
  APTT: 16.1 s
  Bas: 0.2%
  Eos: 1%
  Fbg: 282.4 mg/dL
  Hb: 13.4 g/dL
  Ht: 39.8%
  Lym: 79.2%
  MCH: 21.7 pg
  MCHC: 33.6%
  MCV: 64.6 fL
  Mono: 2.4%
  Neu: 16.8%
  PT: 15.2 s
  Plat: 115.5 x10_4/uL
  RBC: 617 x10_4/ul
  Ret: 5.5%
  WBC: 93.7 x10_2/uL
  ALP: 1458.2 IU/L
  ALT: 37.6 IU/L
  AST: 66.6 IU/L
  BUN: 16.2 mg/dL
  CRE: 0.2 mg/dL
  DBIL: 0.012 mg/dL
  GLC: 173.8 mg/dL
  IP: 7.3 mg/dL
  K: 3.8 meq/L
  Na: 142.6 meq/L
  PL: 157 mg/dL
  RALB: 2.6 g/dL
  TBIL: 0.048 mg/dL
  TC: 79.2 mg/dL
  TG: 94.6 mg/dL
  TP: 5.7 g/dL
  gamma-GTP: 0.6 IU/L
[…], time 7 day
  TERMINAL_BW: 283.7 g
  APTT: 17.3 s
  Bas: 0.2%
  Eos: 1%
  Fbg: 291 mg/dL
  Hb: 13.4 g/dL
  Ht: 39.7%
  Lym: 78.2%
  MCH: 21.2 pg
  MCHC: 33.7%
  MCV: 62.8 fL
  Mono: 3%
  Neu: 16.4%
  PT: 15.5 s
  Plat: 114.5 x10_4/uL
  RBC: 631.8 x10_4/ul
  Ret: 5.9%
  WBC: 125.8 x10_2/uL
  ALP: 1491.8 IU/L
  ALT: 41.2 IU/L
  AST: 67.4 IU/L
  BUN: 16.2 mg/dL
  CRE: 0.2 mg/dL
  DBIL: 0.018 mg/dL
  GLC: 188.2 mg/dL
  IP: 7.5 mg/dL
  K: 4 meq/L
  Na: 142.6 meq/L
  PL: 170.2 mg/dL
  RALB: 2.6 g/dL
  TBIL: 0.05 mg/dL
  TC: 83.6 mg/dL
  TG: 130.2 mg/dL
  TP: 5.7 g/dL
  gamma-GTP: 0.8 IU/L
[…], time 14 day
  TERMINAL_BW: 321.7 g
  APTT: 19.2 s
  Bas: 0.4%
  Eos: 0.8%
  Fbg: 296.8 mg/dL
  Hb: 14.4 g/dL
  Ht: 42.1%
  Lym: 81.4%
  MCH: 20.8 pg
  MCHC: 34.3%
  MCV: 60.7 fL
  Mono: 2.2%
  Neu: 14.2%
  PT: 15.8 s
  Plat: 109.5 x10_4/uL
  RBC: 693.6 x10_4/ul
  Ret: 3.9%
  WBC: 112.4 x10_2/uL
  ALP: 1426.6 IU/L
  ALT: 40.8 IU/L
  AST: 70 IU/L
  BUN: 16.6 mg/dL
  CRE: 0.2 mg/dL
  DBIL: 0.016 mg/dL
  GLC: 188.6 mg/dL
  IP: 6.7 mg/dL
  K: 3.9 meq/L
  Na: 143.6 meq/L
  PL: 152 mg/dL
  RALB: 2.6 g/dL
  TBIL: 0.046 mg/dL
  TC: 72.2 mg/dL
  TG: 126.6 mg/dL
  TP: 5.9 g/dL
  gamma-GTP: 0.4 IU/L
[…], time 28 day
  TERMINAL_BW: 410.5 g
  APTT: 17.7 s
  Bas: 0.6%
  Eos: 1%
  Fbg: 270.4 mg/dL
  Hb: 14.8 g/dL
  Ht: 43.9%
  Lym: 81.2%
  MCH: 19.8 pg
  MCHC: 33.8%
  MCV: 58.5 fL
  Mono: 1.8%
  Neu: 15%
  PT: 15.8 s
  Plat: 95.5 x10_4/uL
  RBC: 750.2 x10_4/ul
  Ret: 2.5%
  WBC: 110.9 x10_2/uL
  ALP: 1044.8 IU/L
  ALT: 36 IU/L
  AST: 58.6 IU/L
  BUN: 15.8 mg/dL
  CRE: 0.2 mg/dL
  DBIL: 0.016 mg/dL
  GLC: 179.4 mg/dL
  IP: 5.8 mg/dL
  K: 3.9 meq/L
  Na: 144 meq/L
  PL: 164.4 mg/dL
  RALB: 2.7 g/dL
  TBIL: 0.044 mg/dL
  TC: 78.4 mg/dL
  TG: 155.8 mg/dL
  TP: 6.3 g/dL
  gamma-GTP: 1 IU/L

From ChEMBL document CHEMBL3885861, “Open TG-GATES”
